Patent US20220107328A1, “METHODS OF TREATING LIVER DISEASES” (Camp4 Therapeutics Corporation, priority 2018, published 2022)

Legend:
PNPLA3 mRNA [1] = assay: qRT-PCR of PNPLA3 mRNA in human primary hepatic stellate cells; type: cell-based; details: 3 μM, relative to GAPDH
COL1A1 mRNA = assay: qRT-PCR of COL1A1 mRNA in human primary hepatic stellate cells; type: cell-based; details: 3 μM, relative to GAPDH
Experimental: Cells were plated at a density of 17000 cells/well in a 96-well plate and allowed to adhere overnight. The following day cell culture media was replenished with the indicated concentration(s) of compound for 18 hours. […] Medium was removed after 18 hours and cells were processed for further analysis, e.g. qRT-PCR.
Analysis of the fold changes in expression as measured by qRT-PCR were performed using the technique below. The control was DMSO, and the treatment was the selected compound (CPD). The internal control was GAPDH or B-Actin (or otherwise indicated), and the gene of interest is the target. First, the averages of the 4 conditions were calculated for normalization: DMSO:GAPDH, DMSO:Target, CPD: GAPDH, and CPD:Target. Next, the ΔCT of both control and treatment were calculated to normalize to internal control (GAPDH) using (DMSO:Target)−(DMSO:GAPDH)=ΔCT control and (CPD:Target)−(CPD: GAPDH)=ΔCT experimental. Then, the ΔΔCT was calculated by ΔCT experimental−ΔCT control.
Candidate compounds were tested in stellate cells for their ability to modulate PNPLA3 and COL1A1. Stellate cells were treated with serial dilutions of the compounds, ranging from 0.1 μM to 100 μM. Changes in PNPLA3 (or COL1A1) mRNA levels in stellate cells were analyzed with qRT-PCR.

PCSK9 mRNA = assay: qRT-PCR of PCSK9 mRNA in primary hepatocytes; type: cell-based, human; details: donor 4178, 3 μM, relative to GUSB
PNPLA3 mRNA [2] = assay: qRT-PCR of PNPLA3 mRNA in compound-treated primary human hepatocytes; details: for Primary Hepatocytes 4178 PNPLA3 (fold change in mRNA expression): donor 4178, 3 μM; for Primary Hepatocytes 4178 PNPLA3 (fold change in mRNA expression) / Primary Hepatocytes 4282 PNPLA3 (fold change in mRNA expression): relative to GUSB; for Primary Hepatocytes 4282 PNPLA3 (fold change in mRNA expression): donor 4282, 3 μM; for Relative PINPLA3 mRNA: hepatocytes

| SMILES | Primary Stellate cells PNPLA3 (fold change in mRNA expression) (PNPLA3 mRNA [1]) | Primary Stellate cells COL1A1 (fold change in mRNA expression) (COL1A1 mRNA) | Primary Hepatocytes 4178 PCSK9 (fold change in mRNA expression) (PCSK9 mRNA) | Primary Hepatocytes 4178 PNPLA3 (fold change in mRNA expression) (PNPLA3 mRNA [2]) | Primary Hepatocytes 4282 PNPLA3 (fold change in mRNA expression) (PNPLA3 mRNA [2]) | Relative PINPLA3 mRNA (PNPLA3 mRNA [2]; 1 uM) | Relative PINPLA3 mRNA (PNPLA3 mRNA [2]; 10 uM) | Relative PINPLA3 mRNA (PNPLA3 mRNA [2]; 0.1 uM) | Relative PINPLA3 mRNA (PNPLA3 mRNA [2]; 0.3 uM) | Relative PINPLA3 mRNA (PNPLA3 mRNA [2]; 3 uM) | PNPLA3 expression by reported compound specificity (in words) (PNPLA3 mRNA [2]; summary of mTOR/PI3K inhibitor testing) |
| --- | --- | --- | --- | --- | --- | --- | --- | --- | --- | --- | --- |
| CO[C@@H](C)Cn1c(=O)n(C)c2cnc3ccc(-c4cncc(C(C)(C)O)c4)cc3c21 [LY3023414] | 0.94 | 0.49 | 0.65 | 0.80 | 1.00 |  |  |  |  |  |  |
| Cc1cc([C@@H](C)Nc2ccccc2C(=O)O)c2nc(N3CCOCC3)cc(=O)n2c1 [AZD6482] | 0.87 | 1.20 | 0.56 |  |  |  |  |  |  |  |  |
| Nc1cc(C(F)(F)F)c(-c2cc(N3CCOCC3)nc(N3CCOCC3)n2)cn1 [NVP-BKM120] | 0.43 | 0.66 | 0.75 | 0.60 | 0.70 |  |  |  |  |  |  |
| Nc1cc(C(F)(F)F)c(-c2cc(N3CCOCC3)nc(N3CCOCC3)n2)cn1 [Buparlisib (BKN120, NVE-BKM120)] | 0.50 | 0.81 | 0.46 | 0.52 | 0.60 |  |  |  |  |  |  |
| C[C@H](NC(=O)c1c(N)nn2cccnc12)c1cc2cccc(C#Cc3cnn(C)c3)c2c(=O)n1-c1ccccc1 [IPI-549] | 0.75 | 1.00 | 0.74 | 0.68 | 0.68 |  |  |  |  |  |  |
| COc1ccc(-c2nc(N3CCOCC3)c3sc(CN(C)c4ncc(C(=O)NO)cn4)cc3n2)cn1 [CUDC-907] | 1.33 | 0.41 | 0.83 | 0.50 | 0.50 |  |  |  |  |  |  |
| COc1ncc(-c2ccc3nccc(-c4ccnnc4)c3c2)cc1NS(=O)(=O)c1ccc(F)cc1F [GSK2126458] | 0.90 | 0.42 | 0.91 | 0.92 | 0.80 | 0.395 | 0.800 |  |  |  |  |
| C[C@H](Nc1ncnc2[nH]cnc12)c1cc2ccc(F)cc2nc1-c1ccccn1 [AMG319] | 0.99 | 0.99 | 0.74 | 0.73 | 0.85 |  |  |  |  |  |  |
| Nc1nc2cc(-c3ccc4ncc(C(=O)N5CCOCC5)n4c3)ccc2o1 [MLN1117] | 0.70 | 1.14 | 0.69 | 1.57 | 0.97 |  |  |  |  |  |  |
| Nc1cc(C(F)(F)F)c(-c2nc(N3CCOCC3)nc(N3CCOCC3)n2)cn1 [PQR309] | 0.88 | 0.81 | 0.50 | 0.47 | 0.60 | 0.5267 |  | 1.353 | 0.8236 | 0.4657 | most robust PNPLA3 inhibition |
| Cc1nc(NC(=O)N2CCC[C@H]2C(N)=O)sc1-c1ccnc(C(C)(C)C(F)(F)F)c1 [BYL-719] | 0.70 | 1.24 | 0.71 | 0.69 | 0.60 |  |  |  |  |  |  |
